Structures can show the parent of a compound that is named as a salt.

For 16 molecules, melting point and IC50 results are on record in patent publication US20020183362A1, “2-Fluorobenzenesulfonyl compounds for the treatment of inflammation” (Pharmacia Corporation, priority 2000, published 2002).

Data set [1] has as its target T1, Human COX-1 (Homo sapiens, UniProt P23219).
T1 construct: A 2.0 kb fragment containing the coding region of either human or murine COX-1 or human or murine COX-2; made in house; host or cells: SF9 insect cells (baculovirus, transfer vector pVL1393)
Nature of the data set: Assay for COX-1 and COX-2 activity (PGE2 ELISA, recombinant enzyme), COX-1. In kind it is biochemical. The settings on record: Table I; pre-incubated 10-20 minutes, arachidonic acid 10 μM, stopped after ten minutes, pH 8.0. The method, then:
(§1) Recombinant baculoviruses were isolated by transfecting 4 μg of baculovirus transfer vector DNA into SF9 insect cells (2×10^8) along with 200 ng of linearized baculovirus plasmid DNA by the calcium phosphate method. See M. D. Summers and G. E. Smith, A Manual of Methods for Baculovirus Vectors and Insect Cell Culture Procedures, Texas Agric. Exp. Station Bull. […] Recombinant viruses were purified by three rounds of plaque purification and high titer (10^7-10^8 pfu/mL) stocks of virus were prepared. For large scale production, SF9 insect cells were infected in 10 liter fermentors (0.5×10^6/mL) with the recombinant baculovirus stock such that the multiplicity of infection was 0.1. After 72 hours the cells were centrifuged and the cell pellet homogenized in Tris/Sucrose (50 mM: 25%, pH 8.0) containing 1% 3-[(3-cholamidopropyl)dimethylammonio]-1-propanesulfonate (CHAPS). The homogenate was centrifuged at 10,000×G for 30 minutes, and the resultant supernatant was stored at −80° C. before being assayed for COX activity.
COX activity was assayed as PGE2 formed/μg protein/time using an ELISA to detect the prostaglandin released. CHAPS-solubilized insect cell membranes containing the appropriate COX enzyme were incubated in a potassium phosphate buffer (50 mM, pH 8.0) containing epinephrine, phenol, and heme with the addition of arachidonic acid (10 μM). Compounds were pre-incubated with the enzyme for 10-20 minutes prior to the addition of arachidonic acid. […] The PGE2 formed was measured by standard ELISA technology (Cayman Chemical).
(In general: In an ELISA, binding on a coated surface is turned into a signal by an enzyme label.)

The target in data set [2] is T2, Human COX-2 (Homo sapiens, UniProt P35354).
T2 construct: A 2.0 kb fragment containing the coding region of either human or murine COX-1 or human or murine COX-2; made in house; host or cells: SF9 insect cells (baculovirus, transfer vector pVL1393)
T2 sequence (P35354 18-604): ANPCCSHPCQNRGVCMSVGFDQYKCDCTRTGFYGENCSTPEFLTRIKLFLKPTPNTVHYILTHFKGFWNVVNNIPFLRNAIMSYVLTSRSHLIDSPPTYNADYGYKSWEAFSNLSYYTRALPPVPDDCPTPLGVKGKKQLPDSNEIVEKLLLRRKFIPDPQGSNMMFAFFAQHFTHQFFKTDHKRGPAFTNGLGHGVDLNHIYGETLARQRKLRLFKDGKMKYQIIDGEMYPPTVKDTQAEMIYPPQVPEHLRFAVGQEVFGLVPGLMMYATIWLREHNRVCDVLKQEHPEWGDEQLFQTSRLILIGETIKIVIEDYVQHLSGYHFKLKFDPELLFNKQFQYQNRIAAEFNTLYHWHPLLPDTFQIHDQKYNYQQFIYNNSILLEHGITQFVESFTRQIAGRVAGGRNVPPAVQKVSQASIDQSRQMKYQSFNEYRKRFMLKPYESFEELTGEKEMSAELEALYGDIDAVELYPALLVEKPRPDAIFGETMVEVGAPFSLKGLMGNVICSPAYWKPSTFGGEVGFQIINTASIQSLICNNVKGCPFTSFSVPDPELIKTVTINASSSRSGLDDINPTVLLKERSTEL
Description: Assay for COX-1 and COX-2 activity (PGE2 ELISA, recombinant enzyme), COX-2. In kind it is biochemical. To be noted: Table I; pre-incubated 10-20 minutes, arachidonic acid 10 μM, stopped after ten minutes, pH 8.0. The method, then: The COX-2 inhibition activity of the compounds of this invention illustrated in the Examples was determined by the following methods.
(§2) Recombinant COX-1 and COX-2 were prepared as described by Gierse et al, [[…]., 305, 479-84 (1995)]. A 2.0 kb fragment containing the coding region of either human or murine COX-1 or human or murine COX-2 was cloned into a BamH1 site of the baculovirus transfer vector pVL1393 (Invitrogen) to generate the baculovirus transfer vectors for COX-1 and COX-2 in a manner similar to the method of D. R. O'Reilly et al (Baculovirus Expression Vectors: A Laboratory Manual (1992)). Recombinant baculoviruses were isolated by transfecting 4 μg of baculovirus transfer vector DNA into SF9 insect cells (2×10^8) along with 200 ng of linearized baculovirus plasmid DNA by the calcium phosphate method. See M. D. Summers and G. E. Smith, A Manual of Methods for Baculovirus Vectors and Insect Cell Culture Procedures, Texas Agric. Exp. Station Bull. 1555 (1987). Recombinant viruses were purified by three rounds of plaque purification and high titer (10^7-10^8 pfu/mL) stocks of virus were prepared. For large scale production, SF9 insect cells were infected in 10 liter fermentors (0.5×10^6/mL) with the recombinant baculovirus stock such that the multiplicity of infection was 0.1. After 72 hours the cells were centrifuged and the cell pellet homogenized in Tris/Sucrose (50 mM: 25%, pH 8.0) containing 1% 3-[(3-cholamidopropyl)dimethylammonio]-1-propanesulfonate (CHAPS). The homogenate was centrifuged at 10,000×G for 30 minutes, and the resultant supernatant was stored at −80° C. before being assayed for COX activity.
COX activity was assayed as PGE2 formed/μg protein/time using an ELISA to detect the prostaglandin released. CHAPS-solubilized insect cell membranes containing the appropriate COX enzyme were incubated in a potassium phosphate buffer (50 mM, pH 8.0) containing epinephrine, phenol, and heme with the addition of arachidonic acid (10 μM). Compounds were pre-incubated with the enzyme for 10-20 minutes prior to the addition of arachidonic acid. Any reaction between the arachidonic acid and the enzyme was stopped after ten minutes at 37° C./room temperature by transferring 40 μl of reaction mix into […] and 25 μM indomethacin. The PGE2 formed was measured by standard ELISA technology (Cayman Chemical).

In data set [3] the target is T1, Human COX-1. Description: Fast assay for COX-1 and COX-2 activity (PGE2 ELISA), COX-1. The format is biochemical. The settings on record: Table II, pre-incubated 10 minutes at 25° C., arachidonic acid 10 μM, stopped after two minutes, pH 7.5. Here is the method: as §1
COX activity was assayed as PGE2 formed/μg protein/time using an ELISA to detect the prostaglandin released. CHAPS-solubilized insect cell membranes containing the appropriate COX enzyme were incubated in a potassium phosphate buffer (0.05 M Potassium phosphate, pH 7.5, 2 μM phenol, 1 μM heme, 300 μM epinephrine) with the addition of 20 μl of 100 μM arachidonic acid (10 μM). Compounds were pre-incubated with the enzyme for 10 minutes at 25° C. prior to the addition of arachidonic acid. […] The PGE2 formed was measured by standard ELISA technology (Cayman Chemical).

Data set [4] has as its target T2, Human COX-2. Description: Fast assay for COX-1 and COX-2 activity (PGE2 ELISA), COX-2. The settings on record: Table II, pre-incubated 10 minutes at 25° C., arachidonic acid 10 μM, stopped after two minutes, pH 7.5. The format is biochemical. Here is the method: as §2
COX activity was assayed as PGE2 formed/μg protein/time using an ELISA to detect the prostaglandin released. CHAPS-solubilized insect cell membranes containing the appropriate COX enzyme were incubated in a potassium phosphate buffer (0.05 M Potassium phosphate, pH 7.5, 2 μM phenol, 1 μM heme, 300 μM epinephrine) with the addition of 20 μl of 100 μM arachidonic acid (10 μM). Compounds were pre-incubated with the enzyme for 10 minutes at 25° C. prior to the addition of arachidonic acid. Any reaction between the arachidonic acid and the enzyme was stopped after two minutes at 37° C./room temperature by transferring 40 μl of reaction mix into 160 μl ELISA buffer and 25 μM indomethacin. The PGE2 formed was measured by standard ELISA technology (Cayman Chemical).

T1 sequence (P23219 24-599): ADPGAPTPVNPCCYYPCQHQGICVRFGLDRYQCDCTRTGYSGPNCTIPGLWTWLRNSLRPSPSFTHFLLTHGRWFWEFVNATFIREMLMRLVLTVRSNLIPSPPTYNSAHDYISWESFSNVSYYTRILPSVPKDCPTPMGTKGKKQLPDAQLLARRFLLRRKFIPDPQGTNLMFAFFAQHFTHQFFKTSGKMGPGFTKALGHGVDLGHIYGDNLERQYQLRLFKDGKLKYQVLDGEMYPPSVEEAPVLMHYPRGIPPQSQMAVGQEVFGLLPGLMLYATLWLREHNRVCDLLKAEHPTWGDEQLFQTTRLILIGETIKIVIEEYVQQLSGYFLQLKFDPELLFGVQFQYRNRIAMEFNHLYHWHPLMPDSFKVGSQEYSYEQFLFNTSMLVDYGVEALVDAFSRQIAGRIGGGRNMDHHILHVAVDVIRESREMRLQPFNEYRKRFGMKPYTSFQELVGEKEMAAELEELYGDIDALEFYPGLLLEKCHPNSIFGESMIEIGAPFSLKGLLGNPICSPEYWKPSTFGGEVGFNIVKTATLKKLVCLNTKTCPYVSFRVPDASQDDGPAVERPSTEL

What is called melting point is the temperature, or range, at which the solid turns liquid. `Cc1ccc(-c2cc(C(F)(F)F)nn2-c2ccc(S(N)(=O)=O)c(F)c2)cc1` (as salt: trifluoroacetate) [Example 4, 4-[5-(4-Methylphenyl)-3-(trifluoromethyl)-1H-pyrazol-1-yl]-2-fluorobenzenesulfonamide] showed a melting point of 126 to 128 °C.
Still for that read-out and setting: as for `NS(=O)(=O)c1ccc(-n2nc(C(F)(F)F)cc2-c2ccc(Cl)cc2)cc1F` (as salt: trifluoroacetate) [Example 5, 4-[5-(4-Chlorophenyl)-3-trifluoromethyl-1H-pyrazol-1-yl]-2-fluorobenzenesulfonamide], the figure is 140 to 141 °C; as for `COc1ccc(-c2cc(C(F)(F)F)nn2-c2ccc(S(N)(=O)=O)c(F)c2)cc1F` (as salt: trifluoroacetate) [Example 6, 4-[5-(3-Fluoro-4-methoxy)-3-trifluoromethyl-1H-pyrazol-1-yl]-2-fluorobenzenesulfonamide], 124 to 126 °C; as for `NS(=O)(=O)c1ccc(-n2nc(C(F)(F)F)cc2-c2ccc(F)cc2)cc1F` (as salt: trifluoroacetate) [Example 8, 2-Fluoro-4-[5-(4-fluorophenyl)-3-(trifluoromethyl)-1H-pyrazol-1-yl]benzenesulfonamide], 127 to 130 °C.
Still for that read-out and setting: as for `COc1ccccc1-c1cc(C(F)(F)F)nn1-c1ccc(S(N)(=O)=O)c(F)c1` (as salt: trifluoroacetate) [Example 9, 2-Fluoro-4-[5-(2-methoxyphenyl)-3-(trifluoromethyl)-1H-pyrazol-1-yl]benzenesulfonamide], the figure is 159 to 160 °C; as for `CS(=O)(=O)c1ccc(-c2cc(C(F)F)nn2-c2ccc(F)cc2)cc1F` (as salt: trifluoroacetate) [Example 18, 3-(Difluoromethyl)-5-[3-fluoro-4-(methylsulfonyl)phenyl]-1-(4-fluorophenyl)-1H-pyrazole], 201 to 202 °C; as for `CS(=O)(=O)c1ccc(-c2cc(C(F)F)nn2C2CCCCC2)cc1F` (as salt: trifluoroacetate) [Example 19, 1-Cyclohexyl-3-(difluoromethyl)-5-[3-fluoro-4-(methylsulfonyl)phenyl]-1H-pyrazole], 138 to 139 °C.
On the same count and under the same terms, as for `Cc1ccc(-n2nc(C(F)F)cc2-c2ccc(S(C)(=O)=O)c(F)c2)cc1Cl` (as salt: trifluoroacetate) [Example 20, 1-(3-Chloro-4-methylphenyl)-3-(difluoromethyl)-5-[3-fluoro-4-(methylsulfonyl)phenyl]-1H-pyrazole], the figure is 146 to 147 °C.
In turn, `CS(=O)(=O)c1ccc(-c2cc(C(F)F)nn2-c2cccc(C(F)(F)F)c2)cc1F` (as salt: trifluoroacetate) [Example 21] displayed a melting point of 110 to 111 °C.
In general, IC50 refers to the concentration at which inhibition is half-maximal. As to `Cc1ccc(-c2cc(C(F)(F)F)nn2-c2ccc(S(N)(=O)=O)c(F)c2)cc1` [Example 4, 4-[5-(4-Methylphenyl)-3-(trifluoromethyl)-1H-pyrazol-1-yl]-2-fluorobenzenesulfonamide], the IC50 at Human COX-1 [1] turned out to be 40.5 µM; at Human COX-2 [2], 0.019 µM; against Human COX-1 [3], 20.3 µM; on Human COX-2 [4] it was 0.006 µM.
On the same counts, the results for `NS(=O)(=O)c1ccc(-n2nc(C(F)(F)F)cc2-c2ccc(Cl)cc2)cc1F` [Example 5, 4-[5-(4-Chlorophenyl)-3-trifluoromethyl-1H-pyrazol-1-yl]-2-fluorobenzenesulfonamide] are 45.9 µM, 0.005 µM, 19.9 µM and 0.004 µM.
On the same counts, the results for `COc1ccc(-c2cc(C(F)(F)F)nn2-c2ccc(S(N)(=O)=O)c(F)c2)cc1F` [Example 6, 4-[5-(3-Fluoro-4-methoxy)-3-trifluoromethyl-1H-pyrazol-1-yl]-2-fluorobenzenesulfonamide] are 45.6 µM, 0.025 µM, above 100 µM and 0.018 µM.
In the case of `COc1ccc(-c2cc(C(F)(F)F)nn2-c2ccc(S(N)(=O)=O)c(F)c2)cc1` [Example 7, 2-Fluoro-4-[5-(4-methoxyphenyl)-3-(trifluoromethyl)-1H-pyrazol-1-yl]benzenesulfonamide], the IC50 on Human COX-2 [2] is 0.005 µM; against Human COX-2 [4], 0.004 µM.
Consider `NS(=O)(=O)c1ccc(-n2nc(C(F)(F)F)cc2-c2ccc(F)cc2)cc1F` [Example 8, 2-Fluoro-4-[5-(4-fluorophenyl)-3-(trifluoromethyl)-1H-pyrazol-1-yl]benzenesulfonamide], for which the IC50 on Human COX-1 [1] came to 56.8 µM; at Human COX-2 [2] it was 0.02 µM; against Human COX-1 [3], 41.5 µM; at Human COX-2 [4] it was 0.021 µM.
Molecule `COc1ccc(-c2cc(C(F)F)nn2-c2ccc(S(N)(=O)=O)c(F)c2)cc1F` [Example 10, 4-[3-(Difluoromethyl)-5-(3-fluoro-4-methoxyphenyl)-1H-pyrazol-1-yl]-2-fluorobenzenesulfonamide] gave a melting point of 167 to 169 °C. On Human COX-1 [1], the 50% inhibitory concentration (IC50) is above 100 µM. Also, the IC50 on Human COX-2 [2] is 0.11 µM.
`Cc1onc(-c2ccccc2)c1-c1ccc(S(N)(=O)=O)c(F)c1` [Example 23] gave a melting point of 180 to 182 °C.
